# Data as given in ChEMBL document CHEMBL1140351, “Design and synthesis of depeptidized macrocyclic inhibitors of hepatitis C NS3-4A protease using structure-based drug design” (J Med Chem, 2005).
# Columns and labels:
# [1] = target: T1, NS3 (Hepatitis C virus, UniProt A3EZJ3); assay: Ability to inhibit the hydrolysis of chromogenic 4-phenylazophenyl ester from the peptide fragment Ac- DTEDVVP(Nva)-O-4-PAP in a HCV protease continuous assay; parameters: species or system Hepacivirus hominis
# [2] = target: T1, NS3; assay: Ability to inhibit the hydrolysis of chromogenic […] ester from the peptide fragment Ac- DTEDVVP(Nva)-O-4-PAP in a HCV protease continuous assay; parameters: species or system Hepacivirus hominis
# [3] = target: T2, Neutrophil elastase (Homo sapiens, UniProt P08246); assay: Binding constant towards Human neutrophil elastase HNE protease
# T2 sequence (P08246 whole entry): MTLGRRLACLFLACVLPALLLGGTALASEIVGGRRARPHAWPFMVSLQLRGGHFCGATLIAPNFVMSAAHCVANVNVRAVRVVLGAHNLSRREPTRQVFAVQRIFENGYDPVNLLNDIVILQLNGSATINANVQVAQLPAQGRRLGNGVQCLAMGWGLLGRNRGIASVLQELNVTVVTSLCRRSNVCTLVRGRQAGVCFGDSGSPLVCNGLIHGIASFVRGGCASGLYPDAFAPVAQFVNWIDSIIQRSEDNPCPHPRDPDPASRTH
# T1 sequence (A3EZJ3 whole entry, the tested form may be a part): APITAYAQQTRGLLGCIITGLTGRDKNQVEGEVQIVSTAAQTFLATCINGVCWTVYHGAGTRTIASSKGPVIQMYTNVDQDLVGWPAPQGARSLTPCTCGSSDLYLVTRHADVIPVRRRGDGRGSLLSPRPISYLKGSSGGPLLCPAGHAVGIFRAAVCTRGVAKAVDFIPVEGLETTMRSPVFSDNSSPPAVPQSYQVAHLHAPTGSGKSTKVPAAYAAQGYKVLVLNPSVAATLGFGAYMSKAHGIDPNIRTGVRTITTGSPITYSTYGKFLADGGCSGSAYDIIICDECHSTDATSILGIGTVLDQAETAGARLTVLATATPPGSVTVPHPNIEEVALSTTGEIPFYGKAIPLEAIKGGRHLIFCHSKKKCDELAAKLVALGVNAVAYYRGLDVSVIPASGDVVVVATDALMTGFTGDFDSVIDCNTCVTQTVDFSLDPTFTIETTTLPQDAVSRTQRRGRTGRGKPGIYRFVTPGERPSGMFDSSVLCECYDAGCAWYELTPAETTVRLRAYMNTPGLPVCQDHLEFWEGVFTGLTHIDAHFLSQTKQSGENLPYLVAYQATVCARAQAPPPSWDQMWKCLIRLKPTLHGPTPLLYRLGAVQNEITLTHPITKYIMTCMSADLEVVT
SMILES,Ki [1],Ki [2],Ki [3]
CCC[C@H](NC(=O)[C@@H]1Cc2cccc(c2)Oc2ccc(cc2)CCCCC(=O)N[C@@H](C2CCCCC2)C(=O)N1)C(=O)C(=O)NCC(=O)N[C@H](C(=O)O)c1ccccc1,160 nM,300 nM,
CCC[C@H](NC(=O)[C@@H]1Cc2cccc(c2)Oc2ccc(cc2)CCCC(=O)N[C@@H](C2CCCCC2)C(=O)N1)C(=O)C(=O)NCC(=O)N[C@H](C(=O)O)c1ccccc1,300 nM,,
CCC[C@H](NC(=O)[C@@H]1Cc2cccc(c2)Oc2ccc(cc2)C[C@H](NC(=O)OC(C)(C)C)C(=O)N[C@@H](C2CCCCC2)C(=O)N1)C(=O)C(=O)NCC(=O)N[C@H](C(=O)O)c1ccccc1,7800 nM,,
CCC[C@H](NC(=O)[C@@H]1Cc2cccc(c2)Oc2ccc(cc2)CCC(=O)N[C@@H](C2CCCCC2)C(=O)N1)C(=O)C(=O)NCC(=O)N[C@H](C(=O)O)c1ccccc1,110 nM,,2900 nM
CCC[C@H](NC(=O)[C@@H]1Cc2cccc(c2)Oc2ccc(cc2)C[C@H](NC(C)=O)C(=O)N[C@@H](C2CCCCC2)C(=O)N1)C(=O)C(=O)NCC(=O)N[C@H](C(=O)O)c1ccccc1,800 nM,,
CCC[C@H](NC(=O)[C@@H]1Cc2cccc(c2)Oc2ccc(cc2)C[C@H](NC(=O)OC(C)(C)C)C(=O)N[C@@H](C2CCCCC2)C(=O)N1)C(=O)C(=O)NCC(=O)O,12000 nM,,
